Test results from US20230365582A1, “NOVEL COMPOUNDS HAVING INHIBITORY ACTIVITY ON PROSTAGLANDIN E2 RECEPTOR AND USES THEREOF” (KANAPH THERAPEUTICS INC., priority 2020, published 2023).

Assays:
hEP2 = molecular target: T1, hEP2 (Homo sapiens, UniProt P43116); assay: hEP2 cAMP assay; type: cell-based; conditions: HEK293 cells overexpressing hEP2; PGE2 agonist 400 pM; graded per Table 21; read-out: IC50 (nM) EP2 cAMP
T1 construct: expressed in transfected cells; host or cells: HEK293
Procedure: (§1) HEK293 cells overexpressing hEP2 were cultured in growth medium (GM: MEM (Gibco™, 11095080)/10% HI FBS (Gibco™, 10082147)/1% penicillin/streptomycin). Before the experiment, the growth medium was removed, and starvation medium (HBSS (Gibco™, 14025076)/10% GM) was added. Thereafter, the cells were incubated for 4 hours. The HEK293 cells harboring hEP2 were detached from the culture dish with a non-enzymatic cell dissociation buffer (Gibco™, 15040066). The cells were resuspended in assay buffer (AB: HBSS, 0.1% BSA stabilizer, 0.5 mM IBMX, 5 mM HEPES).
(§2) 1,000 cells in 5 μL of AB were seeded per well in a 384 well plate (Corning™, 3570), and stock solutions of test compounds were prepared at a concentration of 1 mM in DMSO and serially diluted in DMSO to the concentration required for the inhibition dose response curve (test concentration range of 10 μM-0.001 nM). PGE2 (Sigma, P0409, stock solution: 1 μM) was used as an agonist at a final concentration of 400 pM corresponding to EC50-80. 2.5 μL of the diluted compound and 2.5 μL of PGE2 (400 pM final concentration) were transferred to the assay plate, and then the plate was incubated at room temperature for 12 minutes.
(§3) 5 μL of each donor (Eu-cAMP tracer) and acceptor (ULight-anti-cAMP) was added, and the plate was incubated in the dark for 1 hour at room temperature, and then a Varioskan LUX multimode microplate reader was used to obtain the results (excitation: 334 nm, emission: 615 and 665 nm). The resulting FRET fluorescence value (665 nm/615 nm*10000) was converted and then calculated as a percentage of cAMP relative to the DMSO control value. IC50 values and curves were generated with GraphPad Prism software using log (inhibitor) versus response-variable slopes (4 parameters), and the median of multiple experiments was taken as the experiment result.

hEP4 = molecular target: T2, hEP4 (Homo sapiens, UniProt P35408); assay: hEP4 cAMP assay; type: cell-based; conditions: HEK293 cells overexpressing hEP4; PGE2 agonist 20 nM; graded per Table 21; read-out: IC50 (nM) EP4 cAMP
T2 construct: expressed in transfected cells; host or cells: HEK293
T2 sequence (P35408 whole entry): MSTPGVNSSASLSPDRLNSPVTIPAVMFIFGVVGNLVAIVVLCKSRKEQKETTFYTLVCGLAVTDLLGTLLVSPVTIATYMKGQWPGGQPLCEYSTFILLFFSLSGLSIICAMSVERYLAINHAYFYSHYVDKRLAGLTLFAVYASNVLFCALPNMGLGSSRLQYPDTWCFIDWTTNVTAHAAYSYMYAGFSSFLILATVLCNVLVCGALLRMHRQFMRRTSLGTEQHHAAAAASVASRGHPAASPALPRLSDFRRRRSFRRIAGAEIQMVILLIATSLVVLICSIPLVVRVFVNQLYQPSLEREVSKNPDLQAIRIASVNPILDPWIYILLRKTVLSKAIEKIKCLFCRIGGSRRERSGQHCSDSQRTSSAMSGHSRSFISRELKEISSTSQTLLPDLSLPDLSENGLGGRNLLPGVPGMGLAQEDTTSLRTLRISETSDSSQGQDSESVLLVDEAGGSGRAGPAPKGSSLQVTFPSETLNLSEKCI
Procedure: as §1, with “overexpressing hEP4” for “overexpressing hEP2”, “(HBSS (Gibco™” for “(HBSS (Gibco™,”, “hours.” for “hours. The”, “harboring hEP4” for “harboring hEP2”
as §2, with “plate (Corning®,” for “plate (Corning™,”, “solution: 100” for “solution: 1”, “of 20 nM” for “of 400 pM”, “PGE2 (20 nM” for “PGE2 (400 pM”, “for 18.5” for “for 12”
as §3, with “compared” for “relative”, “slope” for “slopes”

T1 sequence (P43116 whole entry): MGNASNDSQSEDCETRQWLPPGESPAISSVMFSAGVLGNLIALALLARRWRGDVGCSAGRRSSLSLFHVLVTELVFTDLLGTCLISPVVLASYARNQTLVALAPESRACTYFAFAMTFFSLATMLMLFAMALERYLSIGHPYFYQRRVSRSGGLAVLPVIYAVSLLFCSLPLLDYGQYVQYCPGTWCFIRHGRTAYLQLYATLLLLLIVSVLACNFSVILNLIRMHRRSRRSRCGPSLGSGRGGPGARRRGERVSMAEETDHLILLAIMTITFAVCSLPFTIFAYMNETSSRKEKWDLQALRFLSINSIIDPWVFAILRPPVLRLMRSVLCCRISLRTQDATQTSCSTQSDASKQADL

| IC50 (hEP2) [nM] | IC50 (hEP4) [nM] | SMILES |
| --- | --- | --- |
| 500 to 5000 | < 500 | COc1cc(F)cc(-c2ccc(Cn3ccc4sc(C)c(C(=O)NC5CC6(C5)CC(C(=O)O)C6)c43)cc2)c1 (centres unmarked) [Example 95] |
| 5000 to 10000 | < 500 | O=C(NC1CC2(C1)CC(C(=O)O)C2)c1c(Cl)sc(Cl)c1Cc1ccc(-c2ccccc2)cc1 (centres unmarked) [Example 17, 6-(4-([1,1′-biphenyl]-4-ylmethyl)-2,5-dichlorothiophene-3-carboxamido)spiro[3.3]heptane-2-carboxylic acid] |
| < 500 | < 500 | O=C(NC1CC2(C1)CC(C(=O)O)C2)c1csc(Br)c1Cc1ccc(-c2ccccc2)cc1 (centres unmarked) [Example 15, 6-(4-([1,1′-biphenyl]-4-ylmethyl)-5-bromothiophene-3-carboxamido)spiro[3.3]heptane-2-carboxylic acid] |
| > 10000 | < 500 | O=C(NC1CC2(C1)CC(C(=O)O)C2)c1csc2ccn(Cc3ccc(-c4cccnc4)cc3)c12 (centres unmarked) [Example 99, 6-(4-(4-(pyridin-3-yl)benzyl)-4H-thieno[3,2-b]pyrrole-3-carboxamido)spiro[3.3]heptane-2-carboxylic acid] |
| < 500 | < 500 | [H][C@]1(C(=O)O)C[C@]2(C[C@H](NC(=O)c3c(C)sc(C)c3Cc3ccc(-c4cc(OC)cc(N5CCC5=O)c4)cc3)C2)C1 (stereo partly drawn) [Example 63, (2R,4R,6R)-6-(4-((3′-methoxy-5′-(2-oxoazetidin-1-yl)-[1,1′-biphenyl]-4-yl)methyl)-2,5-dimethylthiophene-3-carboxamido)spiro[3.3]heptane-2-carboxylic acid] |
| 500 to 5000 | 500 to 5000 | O=C(NC1CC2(C1)CC(C(=O)O)C2)c1sccc1Cc1ccc(-c2ccccc2)cc1 (centres unmarked) [Example 18, 6-(3-([1,1′-biphenyl]-4-ylmethyl)thiophene-2-carboxamido)spiro[3.3]heptane-2-carboxylic acid] |
| 500 to 5000 | 500 to 5000 | Cc1sc(C)c(C(=O)NC2CC3(C2)CC(C(=O)O)C3)c1Cc1ccc(-c2cc(F)cc(OC(C)C)c2)cc1 (centres unmarked) [Example 46, 6-(4-((3′-fluoro-5′-isopropoxy-[1,1′-biphenyl]-4-yl)methyl)-2,5-dimethylthiophene-3-carboxamido)spiro[3.3]heptane-2-carboxylic acid] |
| 500 to 5000 | < 500 | COc1cc(C(N)=O)cc(-c2ccc(Cc3c(C)sc(C)c3C(=O)NC3CC4(C3)CC(C(=O)O)C4)cc2)c1 (centres unmarked) [Example 58, 6-(4-((3′-carbamoyl-5′-methoxy-[1,1′-biphenyl]-4-yl)methyl)-2,5-dimethylthiophene-3-carboxamido)spiro[3.3]heptane-2-carboxylic acid] |
| > 10000 | > 10000 | O=C(NC1CC2(C1)CC(C(=O)O)C2)c1csc2ccn(CCc3ccc(-c4ccccc4)cc3)c12 (centres unmarked) [Example 91, 6-(4-(2-([1,1′-biphenyl]-4-yl)ethyl)-4H-thieno[3,2-b]pyrrole-3-carboxamido)spiro[3.3]heptane-2-carboxylic acid] |
| > 10000 | 500 to 5000 | O=C(NC1CC2(C1)CC(C(=O)O)C2)c1csc2ccn(Cc3ccc(-n4cccn4)cc3)c12 (centres unmarked) [Example 107, 6-(4-(4-(1H-pyrazol-1-yl)benzyl)-4H-thieno[3,2-b]pyrrole-3-carboxamido)spiro[3.3]heptane-2-carboxylic acid] |
| 500 to 5000 | < 500 | COc1cccc(-c2ccc(Cn3ccc4scc(C(=O)NC5CC6(C5)CC(C(=O)O)C6)c43)cc2)n1 (centres unmarked) [Example 108, 6-(4-(4-(6-methoxypyridin-2-yl)benzyl)-4H-thieno[3,2-b]pyrrole-3-carboxamido)spiro[3.3]heptane-2-carboxylic acid] |
| 500 to 5000 | < 500 | Cc1sc(C)c(C(=O)NC2CC3(C2)CC(C(=O)O)C3)c1Cc1ccc(-c2cc(N)cc(F)c2)cc1 (centres unmarked) [Example 54, 6-(4-((3′-amino-5′-fluoro-[1,1′-biphenyl]-4-yl)methyl)-2,5-dimethylthiophene-3-carboxamido)spiro[3.3]heptane-2-carboxylic acid] |
| > 10000 | > 10000 | Cc1sc(C)c(C(=O)NC2CC3(C2)CC(C(=O)O)C3)c1Nc1ccc(-c2ccccc2)cc1 (centres unmarked) [Example 75, 6-(4-([1,1′-biphenyl]-4-ylamino)-2,5-dimethylthiophene-3-carboxamido)spiro[3.3]heptane-2-carboxylic acid] |
| 500 to 5000 | < 500 | Cc1sc(C)c(C(=O)NC2CC3(C2)CC(C(=O)O)C3)c1Cc1ccc(-c2ccccc2)cc1 (centres unmarked) [Example 1, 6-(4-([1,1′-biphenyl]-4-ylmethyl)-2,5-dimethylthiophene-3-carboxamido)spiro[3.3]heptane-2-carboxylic acid] |
| < 500 | < 500 | COc1cc(F)cc(-c2ccc(Cn3ccc4scc(C(=O)NC5CC6(C5)CC(C(=O)O)C6)c43)cn2)c1 (centres unmarked) [Example 110, 6-(4-((6-(3-fluoro-5-methoxyphenyl)pyridin-3-yl)methyl)-4H-thieno[3,2-b]pyrrole-3-carboxamido)spiro[3.3]heptane-2-carboxylic acid] |
| 5000 to 10000 | < 500 | CCc1ccc(-c2ccc(Cc3c(C)sc(C)c3C(=O)NC3CC4(C3)CC(C(=O)O)C4)cc2)cc1 (centres unmarked) [Example 31, 6-(4-((4′-ethyl-[1,1′-biphenyl]-4-yl)methyl)-2,5-dimethylthiophene-3-carboxamido)spiro[3.3]heptane-2-carboxylic acid] |
| > 10000 | 500 to 5000 | Cc1sc(C)c(N(C)c2ccc(-c3ccccc3)cc2)c1C(=O)NC1CC2(C1)CC(C(=O)O)C2 (centres unmarked) [Example 76, 6-(4-([1,1′-biphenyl]-4-yl(methyl)amino)-2,5-dimethylthiophene-3-carboxamido)spiro[3.3]heptane-2-carboxylic acid] |
| > 10000 | > 10000 | Cc1sc(C)c(C(=O)NC2CC3(C2)CC(C(=O)O)C3)c1CN1CCN(c2ccccc2)CC1 (centres unmarked) [Example 77, 6-(2,5-dimethyl-4-((4-phenylpiperazin-1-yl)methyl)thiophene-3-carboxamido)spiro[3.3]heptane-2-carboxylic acid] |
| 5000 to 10000 | < 500 | O=C(NC1CC2(C1)CC(C(=O)O)C2)c1csc2ccn(Cc3ccc(-c4ccccn4)cc3)c12 (centres unmarked) [Example 104, 6-(4-(4-(pyridin-2-yl)benzyl)-4H-thieno[3,2-b]pyrrole-3-carboxamido)spiro[3.3]heptane-2-carboxylic acid] |
| > 10000 | 500 to 5000 | Cc1sc(C)c(C(=O)NC2CC3(C2)CC(C(=O)O)C3)c1Cc1ccc(-c2cnn(C)c2)cc1 (centres unmarked) [Example 39, 6-(2,5-dimethyl-4-(4-(1-methyl-1H-pyrazol-4-yl)benzyl)thiophene-3-carboxamido)spiro[3.3]heptane-2-carboxylic acid] |
| > 10000 | 500 to 5000 | COc1cc(CN)cc(-c2ccc(Cc3c(C)sc(C)c3C(=O)NC3CC4(C3)CC(C(=O)O)C4)cc2)c1 (centres unmarked) [Example 66, 6-(4-((3′-(aminomethyl)-5′-methoxy-[1,1′-biphenyl]-4-yl)methyl)-2,5-dimethylthiophene-3-carboxamido)spiro[3.3]heptane-2-carboxylic acid] |

| SMILES | IC50 (hEP2) [nM] | IC50 (hEP4) [nM] |
| --- | --- | --- |
| Cc1sc(C)c(C(=O)NC2CC3(C2)CC(C(=O)O)C3)c1Cc1ccc(-c2ccc(C(=O)OC(C)(C)C)cc2)cc1 (centres unmarked) [Example 36, 6-(4-((4′-(tert-butoxycarbonyl)-[1,1′-biphenyl]-4-yl)methyl)-2,5-dimethylthiophene-3-carboxamido)spiro[3.3]heptane-2-carboxylic acid] | 5000 to 10000 | < 500 |
